Consider two compounds from paper PMC10861747, “In vitro evaluation of the reductive carbonyl idarubicin metabolism to evaluate inhibitors of the formation of cardiotoxic idarubicinol via carbonyl and aldo–keto reductases” (Archives of Toxicology, 2024).

By IC50 is commonly meant the concentration needed to halve the response being measured. A high value points to lower potency.

Assay [1] deals with T1, AKR1C3 (Homo sapiens, UniProt P42330).
T1 construct: AKR1C3 human ORF-Clone transiently over-expressed in HEK293 cells
T1 sequence (P42330 1-323): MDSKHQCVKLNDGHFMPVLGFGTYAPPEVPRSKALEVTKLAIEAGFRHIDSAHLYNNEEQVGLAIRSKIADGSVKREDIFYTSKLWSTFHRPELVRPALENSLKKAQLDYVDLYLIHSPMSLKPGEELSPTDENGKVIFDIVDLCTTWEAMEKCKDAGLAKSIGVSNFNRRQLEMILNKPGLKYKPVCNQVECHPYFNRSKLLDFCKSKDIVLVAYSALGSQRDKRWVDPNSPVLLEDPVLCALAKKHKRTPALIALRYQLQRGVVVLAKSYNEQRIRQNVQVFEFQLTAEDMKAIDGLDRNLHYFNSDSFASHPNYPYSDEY
Briefly: idarubicinol formation (UPLC-MS/MS) in AKR1C3-transfected HEK293 cells versus empty-vector cells, […] idarubicin. The class given is cell-based.

For assay [2], the target named is T1, AKR1C3. Briefly: inhibition of idarubicinol formation (UPLC-MS/MS) in HEK293 cells over-expressing AKR1C3, compared with empty-vector control. The class given is cell-based.

Consider `CC(=O)[C@]1(O)Cc2c(O)c3c(c(O)c2[C@@H](O[C@H]2C[C@H](N)[C@H](O)[C@H](C)O2)C1)C(=O)c1ccccc1C3=O` [idarubicin], for which the “idarubicinol formation (UPLC-MS/MS) in AKR1C3-transfected HEK293 cells versus em” value on AKR1C3 [1] is listed as “the over-expression lead to a significantly higher idarubicinol formation in HEK293 cells”. Turning to `O=C1C[C@@]2(C(=O)N1)C(=O)N(Cc1ccc(Br)cc1F)C(=O)c1cccn12` [ranirestat], the IC50 at AKR1C3 [2] was determined as 500 ± 100 nM.
